Measured values from patent US12686673B2 (Blueprint Medicines Corporation, priority 2020, dated 2026).
Counter-ions that a name gives are not always drawn.

Experiments:
Type in all cases: cell-based
[1] = molecular target: EGFR(D770_N771insSVD) expressing Ba/F3 stable cell line (Homo sapiens, UniProt P00533, DUP768-770, cells depend on it); experiment: Cellular proliferation (Alamar Blue) assay, EGFR D770_N771insSVD Ba/F3; conditions: 72 hr, read-out: D770 IC50
Procedure, shortened: (§1)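 72 hr Ba/F3 viability assay; cells in RPMI/10% FBS, compound dilutions down from 10 μM final, Alamar Blue detection.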

[2] = molecular target: EGFR (A767_dupASV) expressing Ba/F3 stable cell line (Homo sapiens, UniProt P00533, DUP767-769, cells depend on it); experiment: Cellular proliferation (Alamar Blue) assay, EGFR A767_dupASV Ba/F3; conditions: 72 hr, read-out: A767 IC50
Procedure, shortened: as §1

A431 cells = experiment: Cellular proliferation (Alamar Blue) assay, A431; conditions: Homo sapiens, A-431; A431 cells, Alamar Blue, 72 hr; read-out: A431 IC50
[3] = molecular target: HER2 (A775_G776insYVMA) expressing Ba/F3 stable cell line (Homo sapiens, UniProt P04626, DUP772-775, cells depend on it); experiment: Cellular proliferation (Alamar Blue) assay, HER2 A775_G776insYVMA Ba/F3; conditions: 72 hr, read-out: YVMA IC50
Procedure, shortened: as §1

Sequence of EGFR (A767_dupASV) expressing Ba/F3 stable cell line (P00533 with tags, fused parts or gaps DUP767-769): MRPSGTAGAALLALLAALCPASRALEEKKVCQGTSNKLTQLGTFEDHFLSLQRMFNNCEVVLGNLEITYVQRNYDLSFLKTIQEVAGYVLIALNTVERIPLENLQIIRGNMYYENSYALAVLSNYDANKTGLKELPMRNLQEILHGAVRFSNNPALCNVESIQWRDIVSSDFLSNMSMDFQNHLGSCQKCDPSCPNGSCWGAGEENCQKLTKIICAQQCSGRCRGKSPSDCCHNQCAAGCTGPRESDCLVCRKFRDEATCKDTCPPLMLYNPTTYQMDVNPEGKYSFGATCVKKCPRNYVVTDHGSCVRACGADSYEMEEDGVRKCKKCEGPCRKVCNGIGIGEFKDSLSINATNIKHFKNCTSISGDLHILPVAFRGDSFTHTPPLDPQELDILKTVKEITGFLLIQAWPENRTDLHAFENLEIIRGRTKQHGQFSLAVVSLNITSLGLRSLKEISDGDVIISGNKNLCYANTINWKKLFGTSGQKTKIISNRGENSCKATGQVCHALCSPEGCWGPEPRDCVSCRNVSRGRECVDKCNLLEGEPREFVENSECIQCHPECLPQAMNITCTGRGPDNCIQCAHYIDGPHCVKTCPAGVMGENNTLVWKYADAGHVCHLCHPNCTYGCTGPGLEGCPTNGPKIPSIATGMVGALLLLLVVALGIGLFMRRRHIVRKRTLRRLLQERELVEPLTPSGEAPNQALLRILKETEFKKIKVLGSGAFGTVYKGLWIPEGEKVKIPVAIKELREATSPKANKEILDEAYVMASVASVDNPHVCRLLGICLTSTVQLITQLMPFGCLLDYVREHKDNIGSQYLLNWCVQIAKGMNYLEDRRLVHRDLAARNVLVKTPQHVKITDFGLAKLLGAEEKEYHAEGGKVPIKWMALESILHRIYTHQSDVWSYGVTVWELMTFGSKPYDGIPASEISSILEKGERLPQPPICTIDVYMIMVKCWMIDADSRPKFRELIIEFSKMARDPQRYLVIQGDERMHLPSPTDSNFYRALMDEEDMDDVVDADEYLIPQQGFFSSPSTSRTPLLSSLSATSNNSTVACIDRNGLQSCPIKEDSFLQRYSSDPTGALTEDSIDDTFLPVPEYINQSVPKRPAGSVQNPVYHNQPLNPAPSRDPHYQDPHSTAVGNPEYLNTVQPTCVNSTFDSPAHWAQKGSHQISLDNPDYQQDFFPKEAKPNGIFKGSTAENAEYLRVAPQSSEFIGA
Sequence of HER2 (A775_G776insYVMA) expressing Ba/F3 stable cell line (P04626 with tags, fused parts or gaps DUP772-775): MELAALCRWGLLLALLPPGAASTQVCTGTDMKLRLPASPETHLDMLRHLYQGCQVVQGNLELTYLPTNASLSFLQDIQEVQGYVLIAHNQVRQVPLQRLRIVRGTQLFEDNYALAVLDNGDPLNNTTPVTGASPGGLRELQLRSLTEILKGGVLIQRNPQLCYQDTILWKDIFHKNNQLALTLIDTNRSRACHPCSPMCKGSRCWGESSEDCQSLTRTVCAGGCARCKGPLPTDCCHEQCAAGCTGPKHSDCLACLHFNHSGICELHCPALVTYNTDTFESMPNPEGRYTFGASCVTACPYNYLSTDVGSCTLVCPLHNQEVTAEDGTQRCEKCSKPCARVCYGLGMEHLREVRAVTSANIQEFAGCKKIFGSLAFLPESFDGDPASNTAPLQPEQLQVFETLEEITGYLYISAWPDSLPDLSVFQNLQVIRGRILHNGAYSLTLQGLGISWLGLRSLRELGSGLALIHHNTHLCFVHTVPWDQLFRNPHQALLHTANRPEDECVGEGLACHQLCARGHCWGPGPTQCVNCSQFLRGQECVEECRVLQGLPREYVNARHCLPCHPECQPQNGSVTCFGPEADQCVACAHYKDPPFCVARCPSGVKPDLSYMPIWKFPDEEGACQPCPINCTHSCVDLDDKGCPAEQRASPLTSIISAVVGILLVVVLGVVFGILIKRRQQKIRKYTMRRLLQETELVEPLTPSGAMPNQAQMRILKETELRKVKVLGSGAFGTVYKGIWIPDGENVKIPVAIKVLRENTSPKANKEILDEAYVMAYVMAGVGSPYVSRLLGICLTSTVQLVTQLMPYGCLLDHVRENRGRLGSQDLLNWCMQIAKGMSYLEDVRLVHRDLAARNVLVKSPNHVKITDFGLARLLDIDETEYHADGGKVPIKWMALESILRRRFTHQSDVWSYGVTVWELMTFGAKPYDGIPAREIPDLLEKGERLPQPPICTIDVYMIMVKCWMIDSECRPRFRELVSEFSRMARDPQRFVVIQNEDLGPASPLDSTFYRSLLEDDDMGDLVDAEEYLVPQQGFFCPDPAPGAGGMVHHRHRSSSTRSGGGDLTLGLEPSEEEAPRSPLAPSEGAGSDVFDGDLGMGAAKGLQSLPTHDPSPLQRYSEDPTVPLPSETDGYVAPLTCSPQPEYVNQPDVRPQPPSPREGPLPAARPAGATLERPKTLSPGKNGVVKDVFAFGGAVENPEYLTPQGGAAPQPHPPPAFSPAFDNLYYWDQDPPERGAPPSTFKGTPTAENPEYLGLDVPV
Sequence of EGFR(D770_N771insSVD) expressing Ba/F3 stable cell line (P00533 with tags, fused parts or gaps DUP768-770): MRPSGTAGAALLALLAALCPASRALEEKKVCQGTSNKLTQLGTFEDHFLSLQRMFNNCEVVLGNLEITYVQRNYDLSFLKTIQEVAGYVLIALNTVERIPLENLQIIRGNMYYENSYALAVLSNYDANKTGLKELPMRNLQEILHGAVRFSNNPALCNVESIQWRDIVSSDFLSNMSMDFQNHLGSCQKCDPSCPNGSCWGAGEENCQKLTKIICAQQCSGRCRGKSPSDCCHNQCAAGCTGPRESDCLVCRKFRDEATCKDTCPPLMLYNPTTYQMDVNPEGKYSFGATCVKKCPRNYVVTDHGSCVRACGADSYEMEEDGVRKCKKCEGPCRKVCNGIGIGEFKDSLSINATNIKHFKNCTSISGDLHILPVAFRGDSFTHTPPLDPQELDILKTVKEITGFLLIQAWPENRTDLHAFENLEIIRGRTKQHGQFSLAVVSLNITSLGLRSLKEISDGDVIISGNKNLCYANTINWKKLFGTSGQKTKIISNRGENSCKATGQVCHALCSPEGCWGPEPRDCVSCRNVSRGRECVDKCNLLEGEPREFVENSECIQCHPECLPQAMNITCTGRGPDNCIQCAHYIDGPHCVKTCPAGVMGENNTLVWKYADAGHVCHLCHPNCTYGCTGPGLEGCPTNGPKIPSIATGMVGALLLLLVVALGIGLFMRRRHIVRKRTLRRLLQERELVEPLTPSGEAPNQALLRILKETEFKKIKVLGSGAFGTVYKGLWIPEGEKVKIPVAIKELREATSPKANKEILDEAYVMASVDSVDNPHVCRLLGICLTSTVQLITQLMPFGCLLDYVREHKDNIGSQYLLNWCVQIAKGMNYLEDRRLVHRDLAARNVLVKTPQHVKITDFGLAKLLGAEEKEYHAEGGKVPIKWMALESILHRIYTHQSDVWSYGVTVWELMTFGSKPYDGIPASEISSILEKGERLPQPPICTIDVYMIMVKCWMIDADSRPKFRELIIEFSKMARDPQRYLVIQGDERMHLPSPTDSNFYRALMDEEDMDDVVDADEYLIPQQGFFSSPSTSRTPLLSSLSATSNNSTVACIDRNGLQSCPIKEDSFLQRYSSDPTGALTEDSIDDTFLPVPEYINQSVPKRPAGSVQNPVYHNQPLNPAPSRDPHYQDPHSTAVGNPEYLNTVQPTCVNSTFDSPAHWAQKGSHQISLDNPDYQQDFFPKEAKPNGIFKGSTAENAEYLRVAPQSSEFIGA

GI50 [1] [µM]	GI50 [2] [µM]	IC50 (A431 cells) [µM]	GI50 [3] [µM]	SMILES
0.265	0.308	0.156	3.15	C=CC(=O)Nc1ccc(F)c(Nc2nc(Nc3cnn(C)c3)ncc2-c2ccc(C(C)(C)C)cc2)c1 [Compound 76, N-(3-((5-(4-(tert-butyl)phenyl)-2-((1-methyl-1H-pyrazol-4-yl)amino)pyrimidin-4-yl)amino)-4-fluorophenyl)acrylamide trifluoroacetate]
0.299	0.774	1.03	2.75	C=CC(=O)Nc1ccc(F)c(Nc2nc(Nc3cnn(C)c3)ncc2-c2ccc3c(ccn3C)c2)c1 [Compound 77, N-(4-fluoro-3-((5-(1-methyl-1H-indol-5-yl)-2-((1-methyl-1H-pyrazol-4-yl)amino)pyrimidin-4-yl)amino)phenyl)acrylamide trifluoroacetate]
0.934	0.887	> 10	0.896	C=CC(=O)Nc1ccc(F)c(Nc2nc(Nc3cnn(C)c3)ncc2-c2cccnc2OC)c1 [Compound 79, N-(4-fluoro-3-((5-(2-methoxypyridin-3-yl)-2-((1-methyl-1H-pyrazol-4-yl)amino)pyrimidin-4-yl)amino)phenyl)acrylamide]
0.036	0.039	0.049	0.185	C=CC(=O)Nc1ccc(F)c(Nc2nc(Nc3cnn(C)c3)ncc2-c2ccc(OC)nc2)c1 [Compound 86, N-(4-fluoro-3-((5-(6-methoxypyridin-3-yl)-2-((1-methyl-1H-pyrazol-4-yl)amino)pyrimidin-4-yl)amino)phenyl)acrylamide]
0.345	0.79	1.07	7.73	C=CC(=O)Nc1ccc(F)c(Nc2nc(Nc3cnn(C)c3)ncc2-c2cccc(OC(F)(F)F)c2)c1 [Compound 96, N-(4-fluoro-3-((2-((1-methyl-1H-pyrazol-4-yl)amino)-5-(3-(trifluoromethoxy)phenyl)pyrimidin-4-yl)amino)phenyl)acrylamide trifluoroacetate]
0.546	0.862	0.586	0.403	C=CC(=O)Nc1ccc(F)c(Nc2nc(Nc3cnn(C)c3)ncc2-c2ccc3[nH]ccc3c2)c1 [Compound 97, N-(4-fluoro-3-{[5-(1H-indol-5-yl)-2-[(1-methyl-1H-pyrazol-4-yl)amino]pyrimidin-4-yl]amino}phenyl)prop-2-enamide]
0.971	0.565	0.258	5.28	C=CC(=O)Nc1ccc(F)c(Nc2nc(Nc3cnn(C)c3)ncc2-c2ccc(-c3ccccc3)cc2)c1 [Compound 127, N-(3-((5-([1,1′-biphenyl]-4-yl)-2-((1-methyl-1H-pyrazol-4-yl)amino)pyrimidin-4-yl)amino)-4-fluorophenyl)acrylamide]
0.101	0.114	0.064	0.654	C=CC(=O)Nc1ccc(F)c(Nc2nc(Nc3cnn(C)c3)ncc2-c2ccc(C3CC3)cc2)c1 [Compound 128, N-(3-((5-(4-cyclopropylphenyl)-2-((1-methyl-1H-pyrazol-4-yl)amino)pyrimidin-4-yl)amino)-4-fluorophenyl)acrylamide trifluoroacetate]
0.026	0.027	0.008	0.083	C=CC(=O)Nc1ccc(F)c(Nc2nc(Nc3cnn(C)c3)ncc2-c2ccc(CC(F)(F)F)cc2)c1 [Compound 130, N-(4-fluoro-3-((2-((1-methyl-1H-pyrazol-4-yl)amino)-5-(4-(2,2,2-trifluoroethyl)phenyl)pyrimidin-4-yl)amino)phenyl)acrylamide trifluoroacetate]
0.202	0.758	0.365	0.348	C=CC(=O)Nc1ccc(F)c(Nc2nc(Nc3cnn(C)c3)ncc2-c2ccc3cccnc3c2)c1 [Compound 131, N-(4-fluoro-3-((2-((1-methyl-1H-pyrazol-4-yl)amino)-5-(quinolin-7-yl)pyrimidin-4-yl)amino)phenyl)acrylamide]
